ChEMBL document CHEMBL2385041, “The discovery of colchicine-SAHA hybrids as a new class of antitumor agents” (Bioorg Med Chem, 2013)
The source made the active and inactive calls. The rule behind the calls is not given here.

How the values were obtained:
Histone deacetylase 1 = Histone deacetylase 1 (Homo sapiens, UniProt Q13547); assay: Inhibition of human recombinant HDAC1 expressed in High5 insect cells using Ac-Lys-Tyr-Lys(-acetyl)-AMC as substrate after 24 hrs by fluorescence assay
A549 = assay: Cytotoxicity against human A549 cells after 72 hrs by MTT assay; assay type: functional, cell-based; details: A549, 72 h
Bel-7402 [1] = assay: Cell cycle arrest in human Bel7402 cells assessed as accumulation at G2/M phase at 1 uM relative to control; assay type: functional, cell-based
PC-3 = assay: Cytotoxicity against human PC3 cells after 72 hrs by MTT assay; assay type: functional, cell-based; details: PC-3, 72 h
MCF7 = assay: Cytotoxicity against human MCF7 cells after 72 hrs by MTT assay; assay type: functional, cell-based; details: MCF7, 72 h
HCT-116 = assay: Cytotoxicity against human HCT116 cells after 72 hrs by MTT assay; assay type: functional, cell-based; details: HCT-116, 72 h
Histone deacetylase 3 = Histone deacetylase 3 (Homo sapiens, UniProt O15379); assay: Inhibition of human recombinant HDAC3 expressed in High5 insect cells using Ac-Lys-Tyr-Lys(-acetyl)-AMC as substrate after 24 hrs by fluorescence assay
A-431 = assay: Cytotoxicity against human A431 cells after 72 hrs by MTT assay; assay type: functional, cell-based; details: A-431, 72 h
[2] = target: T1, Protein deacetylase HDAC6 (Homo sapiens, UniProt Q9UBN7); assay: Inhibition of human recombinant HDAC6 expressed in High5 insect cells using Boc-Lys (-acetyl)-AM) as substrate after 24 hrs by fluorescence assay
T1 sequence (Q9UBN7 whole entry): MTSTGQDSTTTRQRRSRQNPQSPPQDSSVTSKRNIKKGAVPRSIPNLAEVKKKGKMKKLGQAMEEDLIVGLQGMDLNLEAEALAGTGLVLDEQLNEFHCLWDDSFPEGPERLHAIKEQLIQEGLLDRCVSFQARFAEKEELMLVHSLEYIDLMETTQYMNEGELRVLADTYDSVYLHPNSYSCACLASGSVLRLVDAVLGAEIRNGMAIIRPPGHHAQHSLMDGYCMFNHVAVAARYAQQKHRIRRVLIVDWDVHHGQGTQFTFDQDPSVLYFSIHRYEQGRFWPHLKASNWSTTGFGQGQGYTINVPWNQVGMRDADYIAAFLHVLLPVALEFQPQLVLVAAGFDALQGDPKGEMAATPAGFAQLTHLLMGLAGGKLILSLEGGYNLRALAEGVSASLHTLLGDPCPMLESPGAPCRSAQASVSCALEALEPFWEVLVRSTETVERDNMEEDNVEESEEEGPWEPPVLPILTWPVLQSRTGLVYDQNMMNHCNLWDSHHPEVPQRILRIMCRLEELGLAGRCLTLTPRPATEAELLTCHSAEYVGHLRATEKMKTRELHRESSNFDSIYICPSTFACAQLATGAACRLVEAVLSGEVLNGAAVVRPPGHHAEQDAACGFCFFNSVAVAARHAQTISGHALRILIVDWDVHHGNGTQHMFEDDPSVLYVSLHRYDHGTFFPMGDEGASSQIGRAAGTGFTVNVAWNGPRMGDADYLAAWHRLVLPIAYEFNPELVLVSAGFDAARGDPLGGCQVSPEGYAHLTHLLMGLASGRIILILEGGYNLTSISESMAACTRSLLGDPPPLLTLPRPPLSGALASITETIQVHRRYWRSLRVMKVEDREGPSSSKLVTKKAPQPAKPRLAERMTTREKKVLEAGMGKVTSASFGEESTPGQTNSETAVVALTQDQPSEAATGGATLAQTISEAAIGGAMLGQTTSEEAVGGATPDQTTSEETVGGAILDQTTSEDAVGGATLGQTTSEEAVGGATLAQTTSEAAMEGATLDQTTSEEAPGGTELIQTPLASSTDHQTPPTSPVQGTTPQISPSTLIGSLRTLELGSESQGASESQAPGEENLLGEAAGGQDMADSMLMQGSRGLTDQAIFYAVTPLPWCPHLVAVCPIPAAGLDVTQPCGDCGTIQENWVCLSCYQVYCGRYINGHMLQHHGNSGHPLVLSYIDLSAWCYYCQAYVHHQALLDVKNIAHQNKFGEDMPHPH

Bel-7402 [3] = assay: Cell cycle arrest in human Bel7402 cells assessed as accumulation at G2/M phase at 10 uM relative to control; assay type: functional, cell-based

Sequence of Histone deacetylase 1 (Q13547 whole entry): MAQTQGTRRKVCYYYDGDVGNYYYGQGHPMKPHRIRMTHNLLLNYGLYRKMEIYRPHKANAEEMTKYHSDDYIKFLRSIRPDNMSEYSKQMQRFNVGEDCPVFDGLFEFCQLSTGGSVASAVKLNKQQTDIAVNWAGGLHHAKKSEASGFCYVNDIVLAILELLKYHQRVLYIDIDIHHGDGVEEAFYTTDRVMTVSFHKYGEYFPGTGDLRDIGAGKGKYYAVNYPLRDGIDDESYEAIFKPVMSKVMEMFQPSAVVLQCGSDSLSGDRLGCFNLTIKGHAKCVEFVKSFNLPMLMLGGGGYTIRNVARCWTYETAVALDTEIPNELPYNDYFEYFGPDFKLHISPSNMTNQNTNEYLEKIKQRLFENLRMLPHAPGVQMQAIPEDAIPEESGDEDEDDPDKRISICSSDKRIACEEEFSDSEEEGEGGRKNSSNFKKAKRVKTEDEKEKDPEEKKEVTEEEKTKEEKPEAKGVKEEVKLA
Sequence of Histone deacetylase 3 (O15379 whole entry): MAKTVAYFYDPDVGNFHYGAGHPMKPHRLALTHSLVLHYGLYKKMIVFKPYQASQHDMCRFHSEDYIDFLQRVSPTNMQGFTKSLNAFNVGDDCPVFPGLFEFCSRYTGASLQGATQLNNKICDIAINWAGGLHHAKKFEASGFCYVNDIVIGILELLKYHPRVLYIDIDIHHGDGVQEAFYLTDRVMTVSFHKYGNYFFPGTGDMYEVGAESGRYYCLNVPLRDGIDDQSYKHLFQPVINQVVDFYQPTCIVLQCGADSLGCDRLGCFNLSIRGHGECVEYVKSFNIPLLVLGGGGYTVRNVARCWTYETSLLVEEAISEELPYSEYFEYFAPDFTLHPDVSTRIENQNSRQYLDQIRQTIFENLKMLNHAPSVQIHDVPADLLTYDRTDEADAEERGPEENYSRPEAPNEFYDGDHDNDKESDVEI

SMILES	IC50 (Histone deacetylase 1) [nM]	IC50 (A549) [µM]	Activity (Bel-7402 [1])	IC50 (PC-3) [nM]	IC50 (MCF7) [nM]	IC50 (HCT-116) [nM]	IC50 (Histone deacetylase 3) [nM]	IC50 (A-431) [nM]	IC50 [2] [µM]	Activity (Bel-7402 [3])
COc1cc2c(c(OC)c1OC)-c1ccc(OC)c(=O)cc1[C@@H](NC(=O)CCCCC(=O)NO)CC2	720	4.93	Active	5400	928	2080	830	1030	0.44	Active
COc1cc2c(c(OC)c1OC)-c1ccc(OC)c(=O)cc1[C@@H](NC(=O)CCCCCC(=O)NO)CC2	1600	7.29	Active	2940	948	1380	1030	1230	0.76	Active
COc1cc2c(c(OC)c1OC)-c1ccc(OC)c(=O)cc1[C@@H](NC(=O)CCCC(=O)NO)CC2	9580	7.37	Active	2340	876	2740	8360	1830	8.24	Active
COc1cc2c(c(OC)c1OC)-c1ccc(OC)c(=O)cc1[C@@H](NC(C)=O)CC2 [COLCHICINE]		0.023		74	17	37		19		
COc1cc2c(c(OC)c1OC)-c1ccc(OC)c(=O)cc1[C@@H](NC(=O)CCCCCCC(=O)NO)CC2		7.26	Active	3380	1380	2600		3430	9.83	Active
COc1cc2c(c(OC)c1OC)-c1ccc(OC)c(=O)cc1[C@@H](NC(=O)CCC(=O)NO)CC2	1330	4.67	Active	813	825	903	1360	242	3.43	Active
